Legend:
[1] = 101.33 kPa, Liquid, Vibrating tube method
[2] = xn = mol fraction of the nth substance listed; details: 101 kPa, Liquid, Vibrating tube method, x2 = 0

CC(C)(C)O [2-methylpropan-2-ol]
[1]
Details	mass density [kg/m3]
299.15 K	779.48
303.15 K	775.39
308.15 K	770.15
313.15 K	764.84
318.15 K	759.46
323.15 K	753.94
333.15 K	742.7
348.15 K	725.06

O [water] + CC(C)(C)O
[2]
Details	mass density [kg/m3]
274.15 K	999.899
275.15 K	999.94
276.15 K	999.964
277.15 K	999.972
278.15 K	999.964
279.15 K	999.94
280.15 K	999.901
281.15 K	999.848
282.15 K	999.781
283.15 K	999.699
323.15 K	988.03
333.15 K	983.191
348.15 K	974.838

Source: the NIST ThermoML archive (doi:10.1016/j.jct.2010.10.018)
